According to patent publication US20230287027A1, “ADJUVANT WITH TLR4 AGONIST ACTIVITY” (Sumitomo Pharma Co., Ltd, priority 2020, published 2023):

Target: T1, mouse TLR4 (Mus musculus, UniProt Q9JHF9+Q9QUK6)
T1 construct: host or cells: HEK-Blue mTLR4 cell line
T1 sequence (Q9QUK6 26-835): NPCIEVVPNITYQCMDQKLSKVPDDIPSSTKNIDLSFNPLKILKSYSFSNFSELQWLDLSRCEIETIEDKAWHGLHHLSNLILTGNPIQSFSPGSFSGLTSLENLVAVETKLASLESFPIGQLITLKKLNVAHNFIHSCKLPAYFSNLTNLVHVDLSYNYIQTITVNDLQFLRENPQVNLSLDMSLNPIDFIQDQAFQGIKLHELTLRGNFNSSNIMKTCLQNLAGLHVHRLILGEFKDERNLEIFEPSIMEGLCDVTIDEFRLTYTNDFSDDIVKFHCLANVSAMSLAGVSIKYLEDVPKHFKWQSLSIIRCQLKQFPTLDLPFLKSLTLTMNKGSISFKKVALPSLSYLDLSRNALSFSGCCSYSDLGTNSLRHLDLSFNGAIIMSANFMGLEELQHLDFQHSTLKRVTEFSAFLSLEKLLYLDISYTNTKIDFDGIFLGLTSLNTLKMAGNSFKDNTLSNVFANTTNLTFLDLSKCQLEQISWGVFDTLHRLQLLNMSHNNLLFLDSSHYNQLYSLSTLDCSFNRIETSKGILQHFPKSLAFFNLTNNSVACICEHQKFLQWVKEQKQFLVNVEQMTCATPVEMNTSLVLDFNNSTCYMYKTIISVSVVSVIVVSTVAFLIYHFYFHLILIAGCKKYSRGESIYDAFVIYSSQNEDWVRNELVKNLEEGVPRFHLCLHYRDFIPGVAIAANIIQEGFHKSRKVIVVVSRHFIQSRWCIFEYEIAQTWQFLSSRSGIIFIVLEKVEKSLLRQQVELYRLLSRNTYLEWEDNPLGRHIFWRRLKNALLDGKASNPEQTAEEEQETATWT
T1 sequence (Q9JHF9 19-160): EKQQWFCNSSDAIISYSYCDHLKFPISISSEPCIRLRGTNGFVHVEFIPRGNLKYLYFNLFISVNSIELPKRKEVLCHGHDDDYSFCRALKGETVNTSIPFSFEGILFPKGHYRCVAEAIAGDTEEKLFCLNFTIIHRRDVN
Assay: Mouse TLR4 reporter gene assay (Test 2)
Format: cell-based
Details: HEK-Blue mTLR4 cell line, SEAP reporter, 37° C. 16-20 hours, 0.1% DMSO; concentration giving half of maximal SEAP level induced with LPS
Source text: Mouse TLR4 Reporter Gene Assay
HEK-Blue™ mTLR4 cell line (Invivogen) is a stably co-transfected cell line which expresses mouse TLR4, MD2, CD14 and secretory SEAP reporter gene under the transcriptional regulation of an NF-κB response element. The TLR4 expression of the cell line has been already tested by RT-PCR, flow cytometry. Transfectants with stable expression were selected using the antibiotic HEK-Blue™ Selection. TLR signaling leads to the translocation of NF-κB and the activation of the promoter results in expression of the SEAP gene. TLR4-specific activation was assessed by determining the level of SEAP produced following incubation of the cells at 37° C. for 16-20 hours with each compound prepared in Examples and Reference examples in the presence of 0.1% (v/v) DMSO. The mouse TLR4 activity for the present compound was assessed by mouse TLR4 reporter gene assay, and the concentration of the compound concentration which produced half of the maximal level of SEAP induced with LPS was determined as EC50.

EC50 [nM]	SMILES
14.3	CCCCCCCCCCC[C@H](CC(=O)NC1C(OC[C@@H](NC(=O)C[C@@H](CCCCCCCCCCC)OC(=O)CCCCCCCCC)C(=O)O)OC(CO)C(O)C1OC(=O)C[C@@H](CCCCCCCCCCC)OC(=O)CCCCCCCCc1ccccc1)OC(=O)CCCCCCCCC (stereo partly drawn) [Example 1, (2R)-2-{[(3R)-3-(Decanoyloxy)tetradecanoyl]amino}-3-{[3-{[(3R)-3-(decanoyloxy)tetradecanoyl]amino}-5-hydroxy-6-(hydroxymethyl)-4-({(3R)-3-[(9-phenylnonanoyl)oxy]tetradecanoyl}oxy)oxan-2-yl]oxy}propanoic acid]
14.3	CCCCCCCCCCC[C@H](CC(=O)NC1C(OC[C@H](NC(=O)C[C@@H](CCCCCCCCCCC)OC(=O)CCCCCCCCC)C(=O)O)OC(CO)C(O)C1OC(=O)C[C@@H](CCCCCCCCCCC)OC(=O)CCCCCCCCc1ccccc1)OC(=O)CCCCCCCCC (stereo partly drawn) [Example 2, (2S)-2-{[(3R)-3-(decanoyloxy)tetradecanoyl]amino}-3-{[3-{[(3R)-3-(decanoyloxy)tetradecanoyl]amino}-5-hydroxy-6-(hydroxymethyl)-4-({(3R)-3-[(9-phenylnonanoyl)oxy]tetradecanoyl}oxy)oxan-2-yl]oxy}propanoic acid]
28.4	CCCCCCCCCCC[C@H](CC(=O)NC1C(OC[C@@H](NC(=O)C[C@@H](CCCCCCCCCCC)OC(=O)CCCCCCCCC)C(=O)O)OC(CO)C(OP(=O)(O)O)C1OC(=O)C[C@@H](CCCCCCCCCCC)OC(=O)CCCCCCCCc1ccccc1)OC(=O)CCCCCCCCC (stereo partly drawn) [Reference example 9, (2R)-2-{[(3R)-3-(Decanoyloxy)tetradecanoyl]amino}-3-{[3-{[(3R)-3-(decanoyloxy)tetradecanoyl]amino}-6-(hydroxymethyl)-4-({(3R)-3-[(9-phenylnonanoyl)oxy]tetradecanoyl}oxy)-5-(phosphonooxy)oxan-2-yl]oxy}propanoic acid, reference compound]
